Several values for one entry are separate records, joined by “and”; a condition that tells them apart may be missing. Identical values can stand only once.
Assays:
[1] = tested on: SARS-COV-2 virus (USA WA1/2020); test: ACE2 mouse model, lung tissue RT-qPCR viral titer; type: in vivo; conditions: K18-hACE2 mice; for Lung Tissue RT-qPCR Viral Titer Log10, Group Mean: Day 6, 7 animals
[2] = tested on: SARS-COV-2 (USA-WA1/2020 Isolate); type: cell-based; conditions: Calu-3 cells, Mebendazole 2.3 nM-5000 nM
in vitro = conditions: human
[3] = tested on: human lung cancer (Calu-3) cells
[4] = tested on: SARS-COV-2 virus (USA WA1/2020); test: ACE2 mouse model, TCID50 analysis of lung samples; type: in vivo; conditions: K18-hACE2 mice, Day 6 lung; for Titer, TCID50 analysis of lung samples, Group Mean: 7 animals; for Titer, TCID50 analysis of lung samples, individual animals: scored on Vero C1008 (E6) cells after 120 hours
[5] = cited from earlier work
[6] = pre-clinical models, oral administration; cited from earlier work
Calu-3 = test: Cytotoxicity of Imatinib in Calu-3 cells; conditions: any concentration tested (up to 100 μM)
[7] = Day 6, 50 mg/kg/day Mebendazole and/or 100 mg/kg/day Imatinib, oral gavage once daily

Row | Compound | Lung Tissue RT-qPCR Viral Titer Log10, Group Mean [1] | Inhibition of SARS-COV-2 (maximum reached) [2] [%] | CC50 (in vitro) [µM] | inhibition of cell viability ([3]; all tested concentrations up to 5000 nM) [%] | CC50 ([3]; read-out: CC50 (cytotoxic concentration), estimated from absence of cytotoxicity up to 5000 nM) [µM] | Titer, TCID50 analysis of lung samples, Group Mean [4] [Log10 TCID50/mL] | Titer, TCID50 analysis of lung samples, individual animals [4] | plasma concentrations ([5]; 100 mg twice daily for three consecutive days) | higher exposure to steady-state ([5]; long-term oral administration) [fold] | oral dose excreted in urine ([5]; oral dose) [%] | oral bioavailability ([5]; reported) [%] | bioavailability [6] | Lung Tissue RT-qPCR Viral Titer Log10, individual animals [1, 7] | Lung Tissue RT-qPCR Viral Titer, individual animals [1, 7] | cytotoxicity (Vero 76 cells) | cytotoxicity (Calu-3)
1 | COC(=O)Nc1nc2ccc(C(=O)c3ccccc3)cc2[nH]1 [Mebendazole] | 7.6 | 100 | > 5 | ~0 | > 5 | 5.8 | 6.0 Log10 TCID50/mL and 5.3 Log10 TCID50/mL (2×) and 4.8 Log10 TCID50/mL and 5.5 Log10 TCID50/mL and 7.3 Log10 TCID50/mL and 6.5 Log10 TCID50/mL | ≤ 0.03 μg/mL and ≤ 0.1 μM | ~3 | < 2 | 17 | about 15% |  |  |  | 
2 | Cc1ccc(NC(=O)c2ccc(CN3CCN(C)CC3)cc2)cc1Nc1nccc(-c2cccnc2)n1 [Imatinib] | 7.8 |  |  |  |  | 7.4 | 8.0 Log10 TCID50/mL and 6.5 Log10 TCID50/mL and 8.3 Log10 TCID50/mL and 7.5 Log10 TCID50/mL and 5.3 Log10 TCID50/mL and 7.6 Log10 TCID50/mL and 8.5 Log10 TCID50/mL |  |  |  |  |  | 7.9 (2×) and 8.0 and 7.3 and 8.5 and 7.6 and 7.7 | 7.80E+07 and 9.13E+07 and 2.15E+07 and 7.53E+07 and 3.12E+08 and 3.67E+07 and 5.37E+07 | no cytotoxicity was observed | no cytotoxicity was observed
